Earlier results in patent publication US20170074857A1, “MEDICATION ADHERENCE MONITORING DEVICE” (UNIVERSITY OF FLORIDA RESEARCH FOUNDATION, INC., priority 2014, published 2017).

Details: cited from earlier work

SMILES: CCC(C)=O [Formulation 2-butanone, 2-butanone]
- blood elimination t1/2 (in vivo): 49 to 96 min
- pulmonary uptake from air (inhalation exposure 100,000-200,000 ppb): 70%
